Where “and” joins values, the source holds several entries; their conditions need not be identical. Equal entries are not always repeated.
How the values were obtained:
THP-1 cells = experiment: TNF-alpha promoter secreted alkaline phosphatase (TNF-PLAP) reporter in THP-1 cells; assay type: cell-based, human; conditions: absence and presence of 10% serum; FIG. 3
Protocol: Similar results can be obtained when compounds of the invention are tested in a cell-culture model. In this assay, compounds of the invention are tested for their ability to stimulate secretion of alkaline phosphatase from THP-1 cells that have been transfected with the gene for secreted alkaline phosphatase under the control of the TNF-alpha promoter, as described in detail in Goto et al., Molecular Pharmacology 49; 860-873 (1996). In this assay, however, the effects of removing serum^1—a condition that may more-likely mimic a subcutaneous environment—can be evaluated. As shown in FIG. 2 and described in Table 1, results from these assays indicate that compounds of the invention stimulate induction of genes under the control of the TNF-alpha promoter when added to cells in the absence as well as the presence of serum. ^1 This is important to determine if serum components such as lipopolysaccharide binding protein are necessary for drug activity.

normal mouse splenocytes = experiment: Cytokine release from murine splenocytes; assay type: cell-based, C57BL6 mice; conditions: 24 hours culture with test compound
Protocol: The ability of compounds to stimulate cytokine release from splenocytes can be assessed in a mouse model. Spleen cells harvested from C57BL6 mice are cultured for 24 hours in RPMI 1640 cell culture medium containing 5% FBS, 1 mM sodium pyruvate, 2 mM L-glutamine, 100 U/ml penicillin/streptomycin and 50 μM beta-mercaptoethanol, various concentrations of test compound for 20-24 hours, after which the cell culture supernatant is tested for the presence of cytokines.
Spleen cells harvested from mice were cultured for 24 house with test compound and the supernatant was tested for release of cytokines.

[1] = system: mouse macrophage line RAW 264.7; experiment: Tolerization to TLR family ligands, TNF-alpha release; assay type: cell-based; conditions: pretreated 24 hours at 0.1 μg/mL
Protocol: Cells of the mouse macrophage line RAW 264.7 were plated in RPMI 1640 complete culture medium (10% fetal bovine serum, 1 mM sodium pyruvate, 2 mM L-glutamine, 100 U/mL penicillin/streptomycin and 50 μM β-mercaptoethanol). Cells were treated for 24 hours with the TLR4 ligand ER-803022 at 0.1 μg/mL by addition of a concentrated stock solution. Negative control cells were treated with an equivalent volume of PBS. After 24 hours, cells were washed twice in RPMI 1640 complete medium and incubated in medium alone for 3 hours. Cultures were then restimulated with the following synthetic TLR ligands: lipopeptide (S-lipo, a ligand for TLR2) at 0.1 μg/mL, ER-803022 at 0.1 μg/mL, a mouse CpG oligonucleotide of the sequence […] (a ligand of murine TLR9) at 0.5 μg/mL, or PBS. Supernatants were taken at 3 and 4 hours and cytokine levels were determined by ELISA.

Human Whole Blood = experiment: Cytokine release in human whole blood (ELISA); assay type: cell-based
Protocol: The most readily available human system to test compound activity on monocytes/macrophages is in whole blood. Various concentrations of compounds of the invention were added as 10× stocks in 50 μl of Ca^++, Mg^++-free Hank's balanced salt solution (HBSS) followed by 50 μl of HBSS into 400 μl of heparinized whole blood obtained from normal volunteers (18-51 years old; 110-230 lb.) into the wells of plastic assay plates, for a total volume of 500 μl/well (final concentration of whole blood was 80%). After a 3-hour incubation with gentle shaking at 37° C. in a 5% CO2 atmosphere, the assay plates were centrifuged at 1000×g for 10 min. at 4° C. and plasma was drawn off and frozen at −80° C. Plasma samples were analyzed for TNF-alpha, IL-10, and IL-12 by ELISA (Genzyme Corp., Cambridge, Mass.). Each assay point was tested in triplicate.
This stimulatory activity can be compared to that of 10 ng/ml endotoxin (or LPS) present in similar incubations in the same assay.

Nonadherent PBMC = experiment: Cytokine production by stimulated nonadherent human PBMC; assay type: cell-based; conditions: 50 nM, 24 hrs
Adherent PBMC = experiment: Cytokine production by stimulated adherent human PBMC; assay type: cell-based; conditions: 50 nM
Whole blood = experiment: IL-12p70 production in whole blood, 24 hrs (Table 2); assay type: cell-based, human; conditions: 50 nM
[2] = system: B16F10 murine melanoma cells; experiment: Survival of melanoma-bearing mice, i.p. compound with s.c. B16 GM-CSF cell vaccine; assay type: in vivo, B6 mice (C57BL6 mice); conditions: i.p. Compound 804057 combined with s.c. B16 GM-CSF cells, three days after tumor inoculation; FIG. 7
Description: To determine the effect of Compound 804057 when administered intraperitoneally with a cancer vaccine, e.g., granulocyte-macrophage colony stimulating factor (GM-CSF) secreting tumor cells, a mouse model using melanoma cells was used. Compound 804057 is a TLR-4 (Toll-like receptor-4) agonist. B6 mice (C57BL6 mice) were engrafted subcutaneously with […] murine melanoma cells. Three days after tumor cell inoculation, the mice were either (1) vaccinated subcutaneously (s.c.) with 1×10^6 B16F10 tumor cells that were genetically modified to stably express and secrete murine GM-CSF (B16-GM-CSF cells); (2) vaccinated intraperitoneally (i.p.) with Compound 804057; or (3) were treated with a combination of s.c. GM-CSF cell vaccination and i.p. Compound 804057 (the GM-CSF cell vaccination and Compound 804057 vaccination were administered at separate sites in the mice). In these experiments, the GM-CSF cells were inactivated by gamma-irradiation prior to inoculation. Survival of the animals was monitored.

[3] = system: B16F10 murine melanoma cells; experiment: Survival of melanoma-bearing mice, intratumoral GM-CSF cells with compound; assay type: in vivo, B6 mice; conditions: about 3-10 μg, combined with GM-CSF cells, vs untreated or GM-CSF cells alone, FIG. 8
Protocol: The effect of Compound 804057 on treatment of B6 mice that were engrafted subcutaneously with 1×10^6 syngeneic B16F10 murine melanoma cells was examined. When tumors became palpable, the mice were injected intratumorally with GM-CSF cells alone, or in combination with Compound 804057 (about 3-10 μg). Survival of the animals was monitored.

MUC1 IL-10−/− mice = experiment: MUC-1 vaccine with adjuvant in mice that develop IBD and colon adenocarcinoma; assay type: in vivo, mouse
Protocol: To test the effects of a MUC-1 vaccine with Compound 804057 adjuvant for treating inflammatory bowel disease (IBD) and subsequent development of colon adenocarcinoma, an engineered mouse strain that lacks the IL-10 gene and expresses transgenic human MUC1 was used. Such mice spontaneously develop intestinal inflammation resembling IBD followed by colon adenocarcinoma. […] 4, 2006.
In these experiments, mice were immunized intranasally with […] of Tn MUC100mer ([…])×5, SEQ ID NO:1) and […] of Compound 804057. Animals were vaccinated at about 4.5 weeks and boosted at about 6.5 weeks and 9 weeks.

EGFRvIII peptide = experiment: EGFRvIII peptide-specific antibody titers after immunization (ELISA); assay type: in vivo, C57/BL6J mice; conditions: s.c. with 25 μg peptide-KLH, 804057 3 μg, GM-CSF 5 μg; for Antibody titers to EGFRvIII peptide, IgG1, individual animals / Antibody titers to EGFRvIII peptide, IgG2a, individual animals: titer = last serum dilution 0.25 OD above background
Description: To determine whether an adjuvant can enhance the effect of an oncology antigen (i.e., an antigen that can be used to vaccinate a subject individual against a cancer), C57/BL6J mice were immunized subcutaneously with a tumor-associated peptide, LEEKKGNYVVTDHC (SEQ ID NO:2) (derived from a mutant form of EGFR, […]) conjugated to the protein carrier keyhole limpet hemocyanin (KLH), with or without Compound 804057 or murine GM-CSF, a cytokine used in cancer vaccine trials to boost immune response. Compound 804057 was dosed at 3 μg, GM-CSF at 5 μg and the peptide-KLH conjugate at 25 μg per dose. Mice were immunized three times at intervals of three weeks. Serum was prepared from mice two weeks after each immunization and tested for […] peptide-specific antibodies using ELISA on plates coated with EGFRvIII peptide conjugated to bovine serum albumin. The results in Table 3 are presented as titers from individual animals. The titer is defined as the last serum dilution at which a signal at 0.25 OD units above background was observed.

## CCCCCC/C=C\CCCC(=O)O[C@H](CCCCCCC)CCOCC(COP(=O)([O-])OCCNC(=O)NCCOP(=O)([O-])OCC(COCC[C@@H](CCCCCCC)OC(=O)CCC/C=C\CCCCCC)NC(=O)CC(=O)CCCCCCCCCCC)NC(=O)CC(=O)CCCCCCCCCCC.[Na+].[Na+] (stereo partly drawn) [ER 111232]
THP-1 cells
  stimulation of alkaline phosphatase expression from TNF promoter reporter (TNF-PLAP): stimulation of alkaline phosphatase expression
Normal mouse splenocytes
  IL-10 release from splenocytes: stimulated
  interferon-gamma release from splenocytes: stimulated

## CCCCCCCCCCCCCC(=O)N[C@H](COCC[C@@H](CCCCCCC)OC(=O)CCCCCCCCCCC)COP(=O)([O-])OCCNC(=O)NCCOP(=O)([O-])OC[C@@H](COCC[C@@H](CCCCCCC)OC(=O)CCCCCCCCCCC)NC(=O)CCCCCCCCCCCCC.[Na+].[Na+] [ER 803022]
[1]; restimulated with CpG 0.5 μg/mL
  TNF-alpha release in response to CpG oligonucleotide, a TLR9 ligand: diminished release of TNF-alpha
[1]; restimulated with ER-803022 0.1 μg/mL, vs not pretreated
  TNF-alpha release upon subsequent exposure to ER803022 (TLR4 ligand): released less TNF-alpha
[1]; restimulated with S-lipo 0.1 μg/mL
  TNF-alpha release in response to TLR2 ligand S-lipoprotein: diminished release of TNF-alpha

## CCCCCCCCCCCC(=O)CC(=O)NC(COCC[C@@H](CCCCCCC)OC(=O)CCCCCCCCCCC)COP(=O)([O-])OCCNC(=O)NCCOP(=O)([O-])OCC(COCC[C@@H](CCCCCCC)OC(=O)CCCCCCCCCCC)NC(=O)CC(=O)CCCCCCCCCCC.[Na+].[Na+] (stereo partly drawn) [ER 112066]
THP-1 cells
  stimulation of alkaline phosphatase expression from TNF promoter reporter (TNF-PLAP): stimulation of alkaline phosphatase expression
Normal mouse splenocytes
  IL-10 release from splenocytes: stimulation of IL-10 release
  interferon-gamma release from splenocytes: stimulation of interferon-gamma release

## CCCCCC/C=C\CCCC(=O)O[C@H](CCCCCCC)CCOCC(COP(=O)([O-])OCCNC(=O)CC(=O)NCCOP(=O)([O-])OCC(COCC[C@@H](CCCCCCC)OC(=O)CCC/C=C\CCCCCC)NC(=O)CC(=O)CCCCCCCCCCC)NC(=O)CC(=O)CCCCCCCCCCC.[Na+].[Na+] (stereo partly drawn) [ER 113651]
Normal mouse splenocytes
  IL-10 release from splenocytes: stimulated
  interferon-gamma release from splenocytes: stimulated

## CCCCCCCCCCCC(=O)CC(=O)N[C@H](COCC[C@@H](CCCCCCC)OC(=O)CCCCCCCCCCC)COP(=O)([O-])OCCNC(=O)NCCOP(=O)([O-])OC[C@@H](COCC[C@@H](CCCCCCC)OC(=O)CCCCCCCCCCC)NC(=O)CC(=O)CCCCCCCCCCC.[Na+].[Na+] [ER 804057]
Human Whole Blood; FIG. 2
  IL-10 release from blood-borne cells: stimulate blood-borne cells to release IL-10
  IL-12 release from blood-borne cells: stimulate blood-borne cells to release IL-12
Human Whole Blood; whole blood, vs. % of LPS at 10 ng/ml, read-out: WB ED50 vs LPS@ 10 ng/ml
  EC50: 8 nM
Nonadherent PBMC
  Cytokine Production GM-CSF: 353 pg/mL
  Cytokine Production IL-1α: 108 pg/mL
  Cytokine Production IL-1β: 431 pg/mL
  Cytokine Production Interferon-γ: 331 pg/mL
Adherent PBMC; 4 hrs
  Cytokine Production IL-1α: 8 pg/mL
  Cytokine Production IL-1β: 55 pg/mL
  Cytokine Production IL-6: 551 pg/mL
  Cytokine Production Interferon-α: 345 pg/mL
  Cytokine Production TNF-α: 3627 pg/mL
Adherent PBMC; 24 hrs
  Cytokine Production IL-10: 175 pg/mL
Adherent PBMC; 48 hrs
  Cytokine Production Interferon-α: 175 pg/mL
Whole blood
  Cytokine Production IL-12p70: 1332 pg/mL
[2]
  therapeutic efficacy (survival) of tumor-bearing mice: enhanced the therapeutic efficacy of the GM-CSF cells
[3]
  survival of tumor-bearing mice: increased survival
MUC1 IL-10−/− mice; added to the MUC-1 vaccine
  appearance of histologically detected tumors: suppresses the appearance of histologically detected tumors
  progression to rectal prolapse associated with IBD: can slow the progression to rectal prolapse associated with IBD
MUC1 IL-10−/− mice; age of treated mice, Table 5
  Age (weeks): 12.5-18 weeks
MUC1 IL-10−/− mice; intranasal with MUC-1 vaccine (Tn MUC100mer)
  development of colon cancer: did not develop colon cancer
MUC1 IL-10−/− mice; intranasal with MUC-1 vaccine (Tn MUC100mer), FIG. 9
  onset of IBD: delayed onset of IBD or did not develop IBD
MUC1 IL-10−/− mice; intranasal with MUC-1 vaccine (Tn MUC100mer), FIG. 10
  survival: improved survival
MUC1 IL-10−/− mice; mice with tumors / mice treated
  Colon tumors: 3/3
EGFRvIII peptide
  Geometric mean titer, IgG1: 20182
  Antibody titers to EGFRvIII peptide, IgG1, individual animals: 24000 (6×) and 48000 and 3000
  Antibody titers to EGFRvIII peptide, IgG2a, individual animals: 6000 (2×) and 12000 (3×) and 24000 and 48000 and 1500

B1: GM-CSF: murine GM-CSF, a cytokine used in cancer vaccine trials to boost immune response (protein, UniProt P01587 18-141, looked up)
Granulocyte-macrophage …: APTRSPITVTRPWKHVEAIKEALNLLDDMPVTLNEEVEVVSNEFSFKKLTCVQTRLKIFEQGLRGNFTKLKGALNMTASYYQTYCPPTPETDCETQVTTYADFIDSLKTFLTDIPFECKKPGQK
EGFRvIII peptide
  Geometric mean titer, IgG1: 24000
  Geometric mean titer, IgG2a: 3568
  Antibody titers to EGFRvIII peptide, IgG1, individual animals: 12000 (3×) and 24000 (2×) and 48000 (3×)
  Antibody titers to EGFRvIII peptide, IgG2a, individual animals: 3000 (2×) and 6000 (3×) and 24000 and 750 (2×)
